“Also recorded” adds a separate entry of the source. Read-outs that look alike come from different tables or passages of the source.
Tests used:
[1] = tested on: vascular smooth muscle cells; experiment: MTT cell death (viability) assay; assay type: cell-based, mouse; design: dose or concentration left out as unconfirmed; conditions: 48 hrs
Protocol: Mouse vascular smooth muscle cells, isolated as described (13), were maintained in 231 media (Cascade Biologics, Portland, Oreg.) supplemented with SMGS (Cascade Biologics) in a humidified incubator at 37° C. with 5% CO2. Cells from passages 4-9 were used in all experiments. All experiments were performed in subconfluent, unsynchronized cells growing in SMGS except for the lamellipodium formation assay. Vascular smooth muscle cells were plated at 1×10^4 cells per well in 96-well culture plates and incubated overnight. The cells were treated with various concentrations of morelloflavone for 48 hrs. Then, the cells were exposed to MTT labeling reagent at 10 mg/mL for 4 hrs and solubilized in 0.01 N HCl containing 10% SDS overnight. Formed formazan was measured via spectrophotometry at 600 nm.

[2] = tested on: vascular smooth muscle cells; experiment: Scratch wound cell migration assay; assay type: cell-based, mouse; conditions: for migration index: 18 hrs
Protocol: Mouse vascular smooth muscle cells, isolated as described (13), were maintained in 231 media (Cascade Biologics, Portland, Oreg.) supplemented with SMGS (Cascade Biologics) in a humidified incubator at 37° C. with 5% CO2. Cells from passages 4-9 were used in all experiments. All experiments were performed in subconfluent, unsynchronized cells growing in SMGS except for the lamellipodium formation assay.
Vascular smooth muscle cells that had been grown to confluence in 6-well culture plates were scratched with a sterile […] pipette tip and exposed to various concentrations of morelloflavone. The cells were allowed to migrate onto the plastic surface for 18 hrs and photographed. A migration index was determined based on the number of cells that migrated onto 1 mm^2 free plastic surface, using the Image J software (NIH).

[3] = tested on: ERK; experiment: Western blot, phosphorylation of ERK; assay type: cell-based, mouse; conditions: low concentrations (0.1 & 1 mM)
Protocol: (§1) To assess the phosphorlyation status of ERK, […] of whole cell lysates was loaded onto SDS-PAGE, and Western blot analysis was done using anti-p-ERK (Santa Cruz; E-4; sc-7383) and anti-ERK (Santa Cruz; K-23; sc-94) antibodies. To detect active RhoA, Rac1 and Cdc42, generated GST-tagged RhoA binding domain of Rhotekin protein (GST-Rhotekin-RBD) and GST-tagged p21-binding domain of p21-activated kinase 1 (PAK1)(GST-PAK1-PBD) were first generated. Briefly, E. coli BL21 cells transformed with pGEX4T-PAK1-PBD or pGEX4T-Rh,otekin-RBD were grown at 37° C. and expression of recombinant protein was induced by addition of 0.1 mM IPTG for 3 hours. Cells were resuspended in lysis buffer (50 mM Tris-HCl, pH 8.0, 10% glycerol, 20% sucrose, 2 mM DTT, 1 mg/ml leupeptin, 1 mg/ml pepstatin, and 1 mg/ml aprotinin), sonicated, and centrifuged at 4° C. for 30 min at 45,000 g. The supernatant was incubated with glutathione sepharose 4B beads (GE-Amersham, Piscataway, N.J.) for 1 hour at 4° C., and then washed 3 times in lysis buffer. Using these GST-proteins, GTPase activation assays were performed as described.

[4] = tested on: Cdc42; experiment: GTPase activation assay, Cdc42; assay type: cell-based, mouse; design: dose or concentration left out as unconfirmed
Protocol: as §1, with “described. […]” for “described.”

[5] = Body weight in atherosclerosis study; assay type: in vivo, mouse
Protocol: Twenty four (24) 8 week old Ldlr^−/−Apobec1^−/− mice were randomly assigned to either control group (normal rodent chow, Lab Diet, Richmond, Ind., N=12) or morelloflavone group (normal rodent chow supplemented with 0.003% (w/w) morelloflavone, N=12). The 0.003% (w/w) morelloflavone corresponds to approximately 4 mg/kg morelloflavone for 30 gram animals that consume 4 grams of chow. Animals were housed individually in an air-conditioned room with 12-h light/dark cycle with access to food and water. Body weight of these mice was monitored monthly. After 8 months, animals were sacrificed for analyses of atherosclerosis. Just prior to the sacrifice, blood was sampled from the heart and collected into micro-centrifuge tubes containing EDTA. The entire aortae were excised. All animal experimentation protocols were performed according to the protocol approved by the Institutional Animal Care and Use Committee (IACUC) of the University of Texas Health Science Center at Houston, in accordance with the National Institutes of Health guidelines.

[6] = target: sPLA2-IB (Homo sapiens, UniProt P04054); experiment: sPLA2 enzyme activity assay, Group IB; assay type: biochemical; conditions: recombinant human sPLA2-IB, data not shown
Sequence of sPLA2-IB (P04054 23-148): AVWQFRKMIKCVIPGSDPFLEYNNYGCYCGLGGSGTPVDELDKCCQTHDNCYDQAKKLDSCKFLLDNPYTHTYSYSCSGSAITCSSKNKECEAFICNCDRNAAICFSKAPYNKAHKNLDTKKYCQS
Protocol: (§2) Recombinant human sPLA2 isoforms, Group IB, Group IIA, Group V, and Lp-PLA2 were obtained from R&D Systems and Cayman Chemical Co. sPLA2 enzyme activities in the presence of various concentrations of morelloflavone or other inhibitors were determined using a commercially available assay system according to the manufacturer's instructions (Cayman Chemical Co.). Thioetheramide-1-palmitylthio-2-palmitoylamido-1,2-dideoxy-sn-glycero-3-phosphorylcholine (T-PC) and methyl arachidonyl fluorophosphonate (MAFP) were used as inhibitors of sPLA2 (IB, IIA, and V) and Lp-PLA2, respectively, per manufacturers' instructions.

[7] = target: T1, sPLA2-IIA (Homo sapiens, UniProt P14555); experiment: sPLA2 enzyme activity assay, Group IIA; assay type: biochemical; conditions: recombinant human sPLA2-IIA, data not shown
T1 sequence (P14555 21-144): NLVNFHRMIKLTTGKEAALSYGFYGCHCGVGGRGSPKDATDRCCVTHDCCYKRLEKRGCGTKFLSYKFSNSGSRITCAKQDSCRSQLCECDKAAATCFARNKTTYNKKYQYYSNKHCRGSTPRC
Protocol: as §2

O=C1c2c(O)cc(O)cc2O[C@H](c2ccc(O)cc2)[C@H]1c1c(O)cc(O)c2c(=O)cc(-c3ccc(O)c(O)c3)oc12 [morelloflavone, 5,7, 4′, 5″, 7″, 3″, 4″-heptahydroxy-[3,8″]-flavonylflavanone]
cytotoxicity / cell survival (MTT) [1]: no cytotoxicity; also recorded: does not affect; also recorded: not cytotoxic; also recorded: does not induce cytotoxicity | effect on vascular smooth muscle cell migration ([2]; 0-100 mM, effect from 1 mM (1 μM)): inhibited in a dose-dependent fashion; also recorded: profound effects on migration; also recorded: blocks | migration index ([2]; 1 mM morelloflavone): 487.6±36.9 cells/mm^2 | migration index ([2]; 10 mM morelloflavone): 411.3±39.5 cells/mm^2 | migration index ([2]; 100 mM morelloflavone): 191.86±32.8 cells/mm^2 | phosphorylation of ERK [3]: inhibited; also recorded: robustly decreased phosphorylation; also recorded: blocks | activation of Cdc42 [4]: blocks the activation | activation of Cdc42 ([4]; concentration not given): no significant effect; also recorded: without affecting | Body weight ([5]; 1 month): 22.6 ± 1.5 gm | Body weight ([5]; 2 months): 24.0 ± 1.6 gm | Body weight ([5]; 3 months): 25.4 ± 1.5 gm | Body weight ([5]; 4 months): 26.2 ± 1.5 gm | Body weight ([5]; 5 months): 26.8 ± 1.3 gm | Body weight ([5]; 6 months): 27.5 ± 1.7 gm | Body weight ([5]; 7 months): 28.2 ± 2.5 gm | Body weight ([5]; Final (8 months)): 28.4±2.3 gm | Body weight ([5]; Final (8 months), listed as Morelloflavone): 28.4 ± 2.3 gm | Body weight ([5]; Initial (0 month), Ldlr−/−Apobec1−/− mice, N = 12): 22.3 ± 1.4 gm | IC50 [6]: > 10 µM | IC50 [7]: > 10 µM

Source: patent US20110217293A1, “Uses of morelloflavone” (priority 2008, published 2011)
